The values below are quoted from earlier work in patent publication US6043217A, “Amide derivative of amythiamicin” (Zaidan Hojin Biseibutsu Kagaku Kenyu Kai, priority 1996, dated 2000).

SMILES strings stand for the structures.

The conditions of the series: background statement on known amythiamicins; cited from earlier work.

As for `CNC(=O)CC1NC(=O)c2csc(n2)-c2ccc(-c3nc(C(=O)OCC4NC(=O)C5CCCN5C4=O)cs3)nc2-c2csc(n2)-c2csc(n2)C(C(C)C)NC(=O)CNC(=O)c2csc(n2)C(C(C)C)NC(=O)c2nc1sc2C` (centres unmarked) [Amythiamicin C, amythiamicin C], the solubility in water entry was “hardly soluble in water”.
Turning to `CNC(=O)CC1NC(=O)c2csc(n2)-c2ccc(-c3nc(C4=NC(C(=O)N5CCCC5C(N)=O)CO4)cs3)nc2-c2csc(n2)-c2csc(n2)C(C(C)C)NC(=O)CNC(=O)c2csc(n2)C(C(C)C)NC(=O)c2nc1sc2C` (centres unmarked) [Amythiamicin A], the solubility in water result was “hardly soluble in water”.
